{
  "source": "patent US20140294967A1",
  "about": "“STABLE NANOCOMPOSITION COMPRISING PACLITAXEL, PROCESS FOR THE PREPARATION THEREOF, ITS USE AND PHARMACEUTICAL COMPOSITIONS CONTAINING IT” (BBS Nanotechnology Llc., priority 2013, published 2014)",
  "key": {"[1]": {"system": "SK-OV-3 human ovary adenocarcinoma cells", "experiment": "comparative efficacy study in SK-OV-3 s.c. xenograft SCID mouse model of ovary cancer", "assay_type": "in vivo, SCID mice", "conditions": "5 mg/kg", "procedure": "(§1) The table above illustrates the comparative efficacy study in SK-OV-3 s.c. xenograft SCID mouse model of ovary cancer. Tumor was induced in mice by implanting SK-OV-3 human ovary adenocarcinoma cells s.c. in upper region of back of SCID mice and allowing the tumors to develop to appreciable size over 24 days (70 mm3). The comparative efficacy study of six i.v. injection (day 24, 31, 38, 44, 51 and 58) of 5% glucose, paclitaxel (PACL) 5 mg/kg, NP-PACL 5 mg/kg and NP-PACL-OCT 1.7 mg/kg) was evaluated over 72 days. In this table there are: change in tumor volume of mice on 62nd day after tumor inoculation (data represent mean %±SEM of five mice per group), change in body weight of mice on 62nd day after tumor inoculation (Data represent mean±STDEV of five mice per group) and survival proportion at the end of the experiment."}, "[2]": {"experiment": "body weight of mice during the SK-OV-3 xenograft efficacy study", "assay_type": "in vivo, SCID mice", "conditions": "5 mg/kg, six i.v. injections; 62nd day after tumor inoculation; mean ± STDEV of five mice", "procedure": "as §1"}},
  "data": [
    {"smiles": "CC(=O)O[C@H]1C(=O)[C@@]2(C)[C@H]([C@H](OC(=O)c3ccccc3)[C@]3(O)C[C@H](OC(=O)[C@H](O)[C@@H](NC(=O)c4ccccc4)c4ccccc4)C(C)=C1C3(C)C)[C@]1(OC(C)=O)CO[C@@H]1C[C@@H]2O", "note": "[PACL, (2α,4α,5β,7β,10β,13α)-4,10-bis(acetyloxy)-13-{[(2R,3S)-3-(benzoylamino)-2-hydroxy-3-phenylpropanoyl]oxy}-1,7-dihydroxy-9-oxo-5,20-epoxytax-11-en-2-yl benzoate]", "values": [
      {"measurement": "Change in tumor volume (control: 100%)", "setting": "[1]; six i.v. injections (day 24, 31, 38, 44, 51, 58), 62nd day after tumor inoculation, mean % ± SEM of five mice", "result": "86% ± 13%"},
      {"measurement": "Survival proportion at the end of the experiment", "setting": "[1]; six i.v. injections, evaluated over 72 days, five mice per group", "result": 60, "unit": "%"},
      {"measurement": "Change in body weight during the treatment (weight at start: 100%)", "setting": "[2]", "result": "99% ± 5%"}
    ]}
  ]
}
